Results published in patent US9723989B2, “Ex vivo motility contrast imaging” (Purdue Research Foundation, priority 2015, dated 2017).

Tested on: DLD-1 tumor spheroid
Assay: Biodynamic imaging / tissue dynamics spectroscopy, combined (Het, Div) metric of drug response
Assay type: cell-based
Settings: per-pixel TDS drug-response spectrograms, FIG. 14, FIG. 15
From the text: There are two light paths in the optical coherence imaging system. The laser source provides light which is intensity-controlled by the neutral density filter and size-controlled by lenses L1 and L2. Light is communicated through a half-wave plate, and is then communicated through a polarizing beam splitter (PBS1) which generates an object path and a reference path. Lenses L3 and L4 expand the reference beam, and lens L5 performs the Fourier transform of the back-scattered dynamic speckle from a target. The wave plates (half-wave plate and quarter-wave plate) and the PBS2 ensure most of the laser power is in the object beam, and most of the back-scattered signal reaches the charge coupled device (CCD). The target is often a multicellular tumor spheroid, but can be any living biological specimen that is sufficiently immobilized, such as living tissue obtained by surgical biopsy or by needle biopsy. In TDS experiments, the images are captured at a fixed-depth (usually the mid-plane of the tumor tissue). For example, if the tumor spheroid has a diameter of 500 microns, the images captured by the CCD camera are the Fourier Domain back-scattered dynamic speckle holograms at the fixed depth of 250 microns in the tumor spheroid. Conversely, sections from multiple depths can be acquired to obtain stacks of images that are reconstructed into three-dimensional optical coherence volumetric images. In each 4 min interval, 2 acquisition rates are applied. First 200 images are captured at 25 fps; then another 100 images are captured at 0.5 fps. Thus after combining the high frequency data and the low frequency data together, in each 4 min interval (each data set), the spectrum frequency range is from 0.005 Hz to 12.5 Hz across more than 3 orders of magnitude.
The high-frequency acquisition generates a series of image frames in which the speckle varies in intensity from frame to frame. These intensities are analyzed using a Fourier transform to generate a high-frequency spectrum. The low-frequency acquisition similarly generates a low-frequency spectrum. These high- and low-frequency spectra overlap over a frequency range. A stitching algorithm is performed that combined the high- and low-frequency spectra into a single broad-band spectrum. This spectrum relates to the 300 images and constitutes one time-point spectrum. The process is repeated to generate a series of time-point spectra.
The outcome of the heterogeneity sampling can be encapsulated in a small number of metrics that are communicated to the operator. […]
An example of spatial non-uniformity is shown in FIG. 14 for the Raf inhibitor drug Sorafenib applied to a DLD-1 tumor spheroid. […] These spectrograms were analyzed for intensity and for spectral content. […]

Row | SMILES | Heterogeneity (Het) - how spatially uniform is the response | Diversity (Div) - phenotypic diversity, difference in spectrogram features / spectral content
1 | CC(C)[C@@H]1NC(=O)[C@H](C)OC(=O)[C@@H](C(C)C)NC(=O)[C@@H](C(C)C)OC(=O)[C@H](C(C)C)NC(=O)[C@H](C)OC(=O)[C@@H](C(C)C)NC(=O)[C@@H](C(C)C)OC(=O)[C@H](C(C)C)NC(=O)[C@H](C)OC(=O)[C@@H](C(C)C)NC(=O)[C@@H](C(C)C)OC1=O [valinomycin] | One of the most uniform | –
2 | CC(=O)O[C@H]1C(=O)[C@@]2(C)[C@H]([C@H](OC(=O)c3ccccc3)[C@]3(O)C[C@H](OC(=O)[C@H](O)[C@@H](NC(=O)c4ccccc4)c4ccccc4)C(C)=C1C3(C)C)[C@]1(OC(C)=O)CO[C@@H]1C[C@@H]2O [taxol] | high spatial heterogeneity | spectral content appears the same for core and shell
3 | CNC(=O)c1cc(Oc2ccc(NC(=O)Nc3ccc(Cl)c(C(F)(F)F)c3)cc2)ccn1 [Sorafenib] | 0.83 | –
